Experimental data from patent US6180622A, “Imidazo[5,1-b]thiazol-3-yl carbapenem antimicrobials” (priority 1996, dated 2001).
≈ marks a conversion by molar mass, not a printed value.

How the values were obtained:
Test in all cases: Antimicrobial activity (minimum inhibitory concentration)
Assay type in all cases: cell-based
Ps. aeruginosa GN10362 = conditions: Pseudomonas aeruginosa; Ps. aeruginosa GN10362; read-out: MIC
Experimental: (§1) For representative compounds among the novel carbapenem derivatives of the present invention, the minimum inhibitory concentration (MIC, μg/ml) against various pathogenic bacteria was measured in accordance with a method described in CHEMOTHERAPY, Vol. 16, No. 1, 99 (1968).

S. marcescens No. 1 = conditions: Serratia marcescens
Experimental: as §1

C. freundii GN346 = conditions: Citrobacter freundii
Experimental: as §1

K. pneumoniae PCI602 = conditions: Klebsiella pneumoniae
Experimental: as §1

P. vulgaris GN76 = conditions: Proteus vulgaris; P. vulgaris GN76; read-out: MIC
Experimental: as §1

E. coli GN206 = conditions: Escherichia coli
Experimental: as §1

E. cloacae G-0008 = conditions: Enterobacter cloacae, G0008
Experimental: as §1

S. aureus 209P JC-1 = conditions: Staphylococcus aureus
Experimental: as §1

M. morganii 1510 = conditions: Morganella morganii
Experimental: as §1

E. coli NIHJ JC-2 = conditions: Escherichia coli, NIHJJC2
Experimental: as §1

S. aureus M126 = conditions: Staphylococcus aureus; S. aureus M126, highly meticillin-resistant strain
Experimental: as §1

Compound | MIC (Ps. aeruginosa GN10362) | MIC (S. marcescens No. 1) | MIC (C. freundii GN346) | MIC (K. pneumoniae PCI602) | MIC (P. vulgaris GN76) | MIC (E. coli GN206) | MIC (E. cloacae G-0008) | MIC (S. aureus 209P JC-1) | MIC (M. morganii 1510) | MIC (E. coli NIHJ JC-2) | MIC (S. aureus M126)
C[C@@H](O)[C@H]1C(=O)N2C(C(=O)O)=C(S[C@@H]3CN[C@H](/C=C\c4cn5c[n+](CCC(N)=O)cc5s4)C3)[C@H](C)[C@H]12 [Ex. 76, (1R,5S,6S)-2-[(3S,5S)-5-[2(Z)-(6-(2-Carbamoylethyl)imidazo[5,1-b]thiazolium-2-yl)ethenyl]pyrrolidin-3-yl]thio-6-((1R)-1-hydroxyethyl)-1-methylcarbapen-2-em-3-carboxylic acid chloride] | 0.78 µg/mL | 0.2 µg/mL | 0.1 µg/mL | 0.1 µg/mL | 0.39 µg/mL | 0.1 µg/mL | 0.05 µg/mL | < 0.025 µg/mL | 0.2 µg/mL | 0.05 µg/mL | 6.25 µg/mL
C[C@@H](O)[C@H]1C(=O)N2C(C(=O)O)=C(S[C@@H]3CN[C@H](c4csc5c[n+](C)cn45)C3)[C@H](C)[C@H]12 [Ex. 50, (1R,5S,6S)-6-((1R)-1-Hydroxyethyl)-1-methyl-2-[(3S,5S)-5-[(6-methylimidazo[5,1-b]thiazolium)-3-yl]pyrrolidin-3-yl]thiocarbapen-2-em-3-carboxylic acid chloride] | 0.78 µg/mL | 0.1 µg/mL | 0.1 µg/mL | 0.1 µg/mL | 0.78 µg/mL | 0.05 µg/mL | 0.05 µg/mL | 0.05 µg/mL | 0.39 µg/mL | 0.05 µg/mL | 12.5 µg/mL
C[C@@H](O)[C@H]1C(=O)N2C(C(=O)[O-])=C(S[C@@H]3CN[C@H](/C=C\c4csc5c[n+](CCC(N)=O)cn45)C3)[C@H](C)[C@H]12 [Ex. 72, (1R,5S,6S)-2-[(3S,5S)-5-[2(Z)-(6-(2-Carbamoylethyl)imidazo[5,1-b]thiazolium-3-yl)ethenyl]pyrrolidin-3-yl]thio-6-((1R)-1-hydroxyethyl)-1-methylcarbapen-2-em-3-carboxylate] | 1.56 µg/mL (≈ 2.93 µM) | 0.1 µg/mL (≈ 0.188 µM) | 0.1 µg/mL (≈ 0.188 µM) | 0.1 µg/mL (≈ 0.188 µM) | 0.78 µg/mL (≈ 1.47 µM) | 0.1 µg/mL (≈ 0.188 µM) | 0.05 µg/mL (≈ 0.094 µM) | < 0.025 µg/mL | 0.39 µg/mL (≈ 0.734 µM) | 0.05 µg/mL (≈ 0.094 µM) | 6.25 µg/mL (≈ 11.8 µM)
C[C@@H](O)[C@H]1C(=O)N2C(C(=O)O)=C(S[C@@H]3CN[C@H](C(=O)NCc4n5ccsc5c[n+]4C)C3)[C@H](C)[C@H]12 [Ex. 2, (1R,5S,6S)-6-((1R)-1-Hydroxyethyl)-1-methyl-2-[(3S,5S)-5-[(6-methylimidazo[5,1-b]thiazolium-5-yl)methylaminocarbonyl]pyrrolidin-3-yl]thiocarbapen-2-em-3-carboxylic acid chloride] | 12.5 µg/mL | 0.2 µg/mL | 0.2 µg/mL | 0.1 µg/mL | 1.56 µg/mL | 0.05 µg/mL | 0.1 µg/mL | < 0.025 µg/mL | 0.39 µg/mL | 0.1 µg/mL | 6.25 µg/mL
C[C@@H](O)[C@H]1C(=O)N2C(C(=O)O)=C(S[C@@H]3CN[C@H](/C=C\c4csc5c[n+](CC(N)=O)cn45)C3)[C@H](C)[C@H]12 [Ex. 54] | 1.56 µg/mL | 0.1 µg/mL | 0.05 µg/mL | 0.05 µg/mL | 0.39 µg/mL | 0.05 µg/mL | < 0.025 µg/mL | < 0.025 µg/mL | 0.2 µg/mL | < 0.025 µg/mL | 3.13 µg/mL
C[C@@H](O)[C@H]1C(=O)N2C(C(=O)O)=C(S[C@@H]3CN[C@H](/C=C\c4cn5c[n+](CC(N)=O)cc5s4)C3)[C@H](C)[C@H]12 [Ex. 53B, (1R,5S,6S)-2-[(3S,5S)-5-[2(Z)-(6-(carbamoylmethyl)imidazo[5,1-b]thiazolium-2-yl)ethenyl]pyrrolidin-3-yl]thio-6-((1R)-1-hydroxyethyl)-1-methylcarbapen-2-em-3-carboxylic acid iodide] | 0.78 µg/mL | 0.1 µg/mL | 0.05 µg/mL | 0.05 µg/mL | 0.39 µg/mL | 0.05 µg/mL | 0.05 µg/mL | < 0.025 µg/mL | 0.2 µg/mL | 0.05 µg/mL | 3.13 µg/mL
C[C@@H](O)[C@H]1C(=O)N2C(C(=O)O)=C(S[C@@H]3CN[C@H](C(O)c4csc5cncn45)C3)[C@H](C)[C@H]12 (single isomer, unassigned) [Ex. 6] | 1.56 µg/mL (≈ 3.36 µM) | 0.2 µg/mL (≈ 0.431 µM) | 0.1 µg/mL (≈ 0.215 µM) | 0.1 µg/mL (≈ 0.215 µM) | 0.78 µg/mL (≈ 1.68 µM) | 0.1 µg/mL (≈ 0.215 µM) | 0.1 µg/mL (≈ 0.215 µM) | < 0.025 µg/mL | 0.39 µg/mL (≈ 0.839 µM) | 0.05 µg/mL (≈ 0.108 µM) | 6.25 µg/mL (≈ 13.5 µM)
